“And” between values parts separate entries of the source, which are not always exact repeats. Equal entries are not always repeated. Inconclusive results and toxic doses are left out.
Test system: L1210 leukemia ip in BDF1 mice, survival T/C
Assay: NCI In Vivo Anticancer Drug Screen. Data for tumor model L1210 Leukemia (intraperitoneal) in B6D2F1 (BDF1) mice
Details: endpoint: mean survival time, higher = longer survival
Summary of the method: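 Read-out is survival time, reported as the treated-group measurement over the vehicle-control measurement.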

[1] = dose: 100.0 mg/kg/injection, schedule: Q01DX009 (ip), vehicle: saline
[2] = dose: 100.0 mg/kg/injection, schedule: Q04DX003 (ip), vehicle: saline
[3] = dose: 200.0 mg/kg/injection, schedule: Q01DX009 (ip), vehicle: saline
[4] = dose: 200.0 mg/kg/injection, schedule: Q04DX003 (ip), vehicle: saline
[5] = dose: 400.0 mg/kg/injection, schedule: Q01DX009 (ip), vehicle: saline
[6] = dose: 400.0 mg/kg/injection, schedule: Q04DX003 (ip), vehicle: saline
[7] = dose: 75.0 mg/kg/injection, schedule: Q01DX001 (ip), vehicle: saline
[8] = dose: 150.0 mg/kg/injection, schedule: Q01DX001 (ip), vehicle: saline
[9] = dose: 300.0 mg/kg/injection, schedule: Q01DX001 (ip), vehicle: saline
[10] = dose: 100.0 mg/kg/injection, schedule: Q01DX009 (ip), vehicle: saline with Tween-80
[11] = dose: 200.0 mg/kg/injection, schedule: Q01DX009 (ip), vehicle: saline with Tween-80
[12] = dose: 400.0 mg/kg/injection, schedule: Q01DX009 (ip), vehicle: saline with Tween-80
[13] = dose: 100.0 mg/kg/injection, schedule: Q04DX003 (ip), vehicle: saline with Tween-80
[14] = dose: 200.0 mg/kg/injection, schedule: Q04DX003 (ip), vehicle: saline with Tween-80
[15] = dose: 400.0 mg/kg/injection, schedule: Q04DX003 (ip), vehicle: saline with Tween-80

O=C(O)CCC(Nc1sc([N+](=O)[O-])cc1[N+](=O)[O-])C(=O)O (stereo not given) was tested, and the T/C (dose: 100.0 mg/kg/injection, schedule: Q04DX002 (ip), vehicle: saline with Tween-80) was 95 % of control, the T/C (dose: 200.0 mg/kg/injection, schedule: Q04DX002 (ip), vehicle: saline with Tween-80) was 106 % of control and the T/C (dose: 400.0 mg/kg/injection, schedule: Q04DX002 (ip), vehicle: saline with Tween-80) was 92 % of control.

In the case of O=C(NCCCl)Nc1cccc2cccnc12, the T/C (dose: 100.0 mg/kg/injection, schedule: Q01DX009 (ip), vehicle: Klucel (hydroxypropylcellulose) (HPC)) is reported as 100 % of control, the T/C (dose: 100.0 mg/kg/injection, schedule: Q04DX003 (ip), vehicle: Klucel (hydroxypropylcellulose) (HPC)) is reported as 100 % of control and the T/C (dose: 200.0 mg/kg/injection, schedule: Q01DX009 (ip), vehicle: Klucel (hydroxypropylcellulose) (HPC)) is reported as 98 % of control. For the same compound, the T/C (dose: 200.0 mg/kg/injection, schedule: Q04DX003 (ip), vehicle: Klucel (hydroxypropylcellulose) (HPC)) was 102 % of control, the T/C (dose: 400.0 mg/kg/injection, schedule: Q01DX009 (ip), vehicle: Klucel (hydroxypropylcellulose) (HPC)) was 98 % of control and the T/C (dose: 400.0 mg/kg/injection, schedule: Q04DX003 (ip), vehicle: Klucel (hydroxypropylcellulose) (HPC)) was 94 % of control.

O=[N+]([O-])c1ccc(-c2ncc3cnccn23)cc1 was tested, and the T/C [1] was 90 % of control, the T/C [2] was 100 % of control and the T/C [3] was 90 % of control. The T/C [4] was 93 % of control, the T/C [5] was 91 % of control and the T/C [6] was 95 % of control.

O=C(CC1C=CCC1)NCc1ccccc1 (stereo not given) was tested, and the T/C [7] was 101 % of control, the T/C [8] was 95 % of control and the T/C [9] was 93 % of control.

COc1cccc(/C=C2\CCNC2=O)c1OC was tested, and the T/C (dose: 50.0 mg/kg/injection, schedule: Q01DX001 (ip), vehicle: carboxymethylcellulose (CMC)) was 96 % of control, the T/C (dose: 100.0 mg/kg/injection, schedule: Q01DX001 (ip), vehicle: carboxymethylcellulose (CMC)) was 102 % of control and the T/C (dose: 200.0 mg/kg/injection, schedule: Q01DX001 (ip), vehicle: carboxymethylcellulose (CMC)) was 100 % of control. For the same compound, the T/C (dose: 400.0 mg/kg/injection, schedule: Q01DX001 (ip), vehicle: carboxymethylcellulose (CMC)) was 96 % of control.

In the case of Cc1ccc(SCC#CCOc2ccc(Cl)cc2)cc1, the T/C [7] is reported as 93 % of control, the T/C (dose: 75.0 mg/kg/injection, schedule: Q01DX009 (ip), vehicle: saline) is reported as 99 % of control and the T/C [8] is reported as 95 % of control. For the same compound, the T/C (dose: 150.0 mg/kg/injection, schedule: Q01DX009 (ip), vehicle: saline) was 99 % of control, the T/C [9] was 93 % of control and the T/C (dose: 300.0 mg/kg/injection, schedule: Q01DX009 (ip), vehicle: saline) was 96 % of control.

For O=C(O)CO, the T/C (dose: 50.0 mg/kg/injection, schedule: Q01DX001 (ip), vehicle: saline) was 94 % of control, the T/C (dose: 100.0 mg/kg/injection, schedule: Q01DX001 (ip), vehicle: saline) was 97 % of control and the T/C [10] was 107 % of control. The T/C (dose: 200.0 mg/kg/injection, schedule: Q01DX001 (ip), vehicle: saline) was 108 % of control, the T/C [11] was 100 % of control and the T/C [12] was 93 % of control.

CCCCCCCCCCC(C)c1ccc(S(=O)(=O)O)cc1 (stereo not given) was tested, and the T/C (dose: 100.0 mg/kg/injection, schedule: Q01DX001 (ip), vehicle: saline sonified) was 97 % of control and the T/C (dose: 200.0 mg/kg/injection, schedule: Q01DX001 (ip), vehicle: saline sonified) was 107 % of control.

For C=CCOCC(O)CN(CCCC)CCCC (stereo not given), the T/C (dose: 25.0 mg/kg/injection, schedule: Q01DX009 (ip), vehicle: saline with Tween-80) was 95 % of control and the T/C (dose: 50.0 mg/kg/injection, schedule: Q01DX009 (ip), vehicle: saline with Tween-80) was 97 % of control.

For Cc1ccc(Nc2cc(=S)nc(N)[nH]2)cc1, the T/C (dose: 100.0 mg/kg/injection, schedule: Q01DX Z (ip), vehicle: methylcellulose (MC)) was 93 % of control and the T/C (dose: 200.0 mg/kg/injection, schedule: Q01DX Z (ip), vehicle: methylcellulose (MC)) was 86 % of control.

In the case of C=CC[Se]c1ncnc2c1ccn2C1OC(CO)C(O)C1O (stereo not given), the T/C (dose: 12.5 mg/kg/injection, schedule: Q01DX005 (ip), vehicle: saline) is reported as 101 % of control, the T/C (dose: 25.0 mg/kg/injection, schedule: Q01DX005 (ip), vehicle: saline) is reported as 107 % of control and the T/C (dose: 50.0 mg/kg/injection, schedule: Q01DX005 (ip), vehicle: saline) is reported as 107 % of control. The T/C (dose: 100.0 mg/kg/injection, schedule: Q01DX005 (ip), vehicle: saline) was 102 % of control.

C[N+]1(CCC(c2ccccc2)c2ccccc2)CCCCC1 was tested, and the T/C (dose: 12.5 mg/kg/injection, schedule: Q01DX009 (ip), vehicle: saline) was 97 % of control, the T/C (dose: 25.0 mg/kg/injection, schedule: Q01DX009 (ip), vehicle: saline) was 96 % of control and the T/C (dose: 50.0 mg/kg/injection, schedule: Q01DX009 (ip), vehicle: saline) was 96 % of control.

CCCCNC(=O)N(C)Cc1ccccc1 was tested, and the T/C (dose: 100.0 mg/kg/injection, schedule: Q04DX002 (ip), vehicle: Klucel (hydroxypropylcellulose) (HPC)) was 105 % of control, the T/C (dose: 200.0 mg/kg/injection, schedule: Q04DX002 (ip), vehicle: Klucel (hydroxypropylcellulose) (HPC)) was 97 % of control and the T/C (dose: 400.0 mg/kg/injection, schedule: Q04DX002 (ip), vehicle: Klucel (hydroxypropylcellulose) (HPC)) was 112 % of control.

For CC(=O)/C=C/C1C(C)=CCCC1(C)C (stereo not given), the T/C [13] was 97 % of control, the T/C [14] was 92 % of control and the T/C [15] was 100 % of control.

NC(=O)C1CN1Cc1ccccc1 (stereo not given) was tested, and the T/C [10] was 97 % of control, the T/C [11] was 95 % of control and the T/C [12] was 89 % of control.

CCn1c(C)nc2cc(Cl)c(Br)cc21 was tested, and the T/C [2] was 107 % of control and the T/C [4] was 110 % of control.

For CC(=O)CC(=O)N1CCCCCC1, the T/C (dose: 100.0 mg/kg/injection, schedule: Q01DX009 (ip), vehicle: gum acacia) was 93 % of control, the T/C [13] was 98 % of control and the T/C (dose: 200.0 mg/kg/injection, schedule: Q01DX009 (ip), vehicle: gum acacia) was 98 % of control. The T/C [14] was 95 % of control, the T/C (dose: 400.0 mg/kg/injection, schedule: Q01DX009 (ip), vehicle: gum acacia) was 101 % of control and the T/C [15] was 102 % of control.

For CN(O)C(N)=O, the T/C (dose: 25.0 mg/kg/injection, schedule: Q03HX024 (ip), vehicle: saline) was 160 % of control, the T/C (dose: 35.0 mg/kg/injection, schedule: Q01DX009 (ip), vehicle: saline) was 124 % of control and the T/C (dose: 50.0 mg/kg/injection, schedule: Q03HX024 (ip), vehicle: saline) was 124 % of control. The T/C (dose: 75.0 mg/kg/injection, schedule: Q04DX003 (ip), vehicle: saline) was 108 % of control, the T/C [1] was 151 % of control and the T/C (dose: 115.0 mg/kg/injection, schedule: Q04DX003 (ip), vehicle: saline) was 108 % of control. For the same compound, the T/C (dose: 175.0 mg/kg/injection, schedule: Q04DX003 (ip), vehicle: saline) was 119 % of control, the T/C (dose: 177.0 mg/kg/injection, schedule: Q01DX009 (ip), vehicle: saline) was 152 % of control and 170 % of control and the T/C [3] was 158 % of control. For the same compound, the T/C (dose: 265.0 mg/kg/injection, schedule: Q04DX003 (ip), vehicle: saline) was 115 % of control, the T/C (dose: 266.0 mg/kg/injection, schedule: Q01DX009 (ip), vehicle: saline) was 194 % of control and the T/C (dose: 267.0 mg/kg/injection, schedule: Q01DX009 (ip), vehicle: saline) was 151 % of control. For the same compound, the T/C [6] was 166 % of control, the T/C (dose: 500.0 mg/kg/injection, schedule: Q01DX009 (ip), vehicle: saline) was 100 % of control and the T/C (dose: 800.0 mg/kg/injection, schedule: Q01DX009 (ip), vehicle: saline) was 103 % of control. For the same compound, the T/C (dose: 900.0 mg/kg/injection, schedule: Q04DX003 (ip), vehicle: saline) was 115 % of control.

With O=C(c1cc(=O)[nH]c(=O)[nH]1)N(CCO)CCO the T/C (dose: 100.0 mg/kg/injection, schedule: Q01DX Z (ip), vehicle: saline) was 106 % of control and the T/C (dose: 200.0 mg/kg/injection, schedule: Q01DX Z (ip), vehicle: saline) was 93 % of control.

CCCCCCCCC(=O)N(CC)CC was tested, and the T/C (dose: 100.0 mg/kg/injection, schedule: Q04DX002 (ip), vehicle: saline) was 111 % of control, the T/C (dose: 200.0 mg/kg/injection, schedule: Q04DX002 (ip), vehicle: saline) was 103 % of control and the T/C (dose: 400.0 mg/kg/injection, schedule: Q04DX002 (ip), vehicle: saline) was 96 % of control.

In the case of BrC1CCC2C(CCC(Br)C23OCCO3)C12OCCO2 (stereo not given), the T/C [1] is reported as 91 % of control, the T/C [2] is reported as 89 % of control and the T/C [3] is reported as 98 % of control. The T/C [5] was 91 % of control and the T/C [6] was 108 % of control.
